Results: PubChem BioAssay (NCI)
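Dose response: 5 concentrations. Exposure: 48 h. Format: 96-well plates. Endpoint: linear interpolation; highest concentration if not reached. Here, GI50 denotes the concentration required for 50% inhibition of growth. At the TGI there is no net growth.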

Legend:
Assay in all cases: inhibition of tumour cell growth, NCI panel, 48 h
DU-145 prostate = test system: DU-145 prostate
KM12 colon = test system: KM12 colon
NCI-H460 lung = test system: NCI-H460 lung
NCI-H522 lung = test system: NCI-H522 lung
SW-620 colon = test system: SW-620 colon
T-47D breast = test system: T-47D breast
A549 NSCLC = test system: A549 NSCLC
MOLT-4 leukemia = test system: MOLT-4 leukemia
HCC-2998 colon = test system: HCC-2998 colon
SF-295 CNS = test system: SF-295 CNS
PC-3 prostate = test system: PC-3 prostate
SK-MEL-5 melanoma = test system: SK-MEL-5 melanoma
SK-OV-3 ovarian = test system: SK-OV-3 ovarian
NCI-H23 lung = test system: NCI-H23 lung
MDA-MB-231 breast = test system: MDA-MB-231 breast
COLO 205 colon = test system: COLO 205 colon
SN12C renal = test system: SN12C renal
LOX IMVI melanoma = test system: LOX IMVI melanoma
OVCAR-5 ovarian = test system: OVCAR-5 ovarian
RPMI-8226 leukemia = test system: RPMI-8226 leukemia
SF-539 CNS = test system: SF-539 CNS
HOP-62 NSCLC = test system: HOP-62 NSCLC
U251 CNS = test system: U251 CNS
HT29 colon = test system: HT29 colon
MDA-MB-435 = test system: MDA-MB-435
RXF 393 renal = test system: RXF 393 renal
SNB-19 CNS = test system: SNB-19 CNS
HOP-92 NSCLC = test system: HOP-92 NSCLC
A498 renal = test system: A498 renal
786-0 renal = test system: 786-0 renal
UACC-257 melanoma = test system: UACC-257 melanoma
NCI/ADR-RES ovarian = test system: NCI/ADR-RES ovarian
SK-MEL-28 melanoma = test system: SK-MEL-28 melanoma
HCT-116 colon = test system: HCT-116 colon
SK-MEL-2 melanoma = test system: SK-MEL-2 melanoma
CCRF-CEM leukemia = test system: CCRF-CEM leukemia
CAKI-1 renal = test system: CAKI-1 renal
K-562 leukemia = test system: K-562 leukemia
M14 melanoma = test system: M14 melanoma
UACC-62 melanoma = test system: UACC-62 melanoma
EKVX NSCLC = test system: EKVX NSCLC
HS 578T breast = test system: HS 578T breast
OVCAR-4 ovarian = test system: OVCAR-4 ovarian
IGROV1 ovarian = test system: IGROV1 ovarian
UO-31 renal = test system: UO-31 renal
HCT-15 colon = test system: HCT-15 colon
MALME-3M melanoma = test system: MALME-3M melanoma
OVCAR-3 ovarian = test system: OVCAR-3 ovarian
MDA-MB-468 breast = test system: MDA-MB-468 breast
NCI-H226 lung = test system: NCI-H226 lung
BT-549 breast = test system: BT-549 breast
HL-60(TB) leukemia = test system: HL-60(TB) leukemia
OVCAR-8 ovarian = test system: OVCAR-8 ovarian
TK-10 renal = test system: TK-10 renal
SR leukemia = test system: SR leukemia
MCF7 breast = test system: MCF7 breast
ACHN renal = test system: ACHN renal
SF-268 CNS = test system: SF-268 CNS

## COc1ccc2c3nc4cc(C)c(C)cc4nc3n(CCN(C)C)c2c1
DU-145 prostate
  GI50: 2.74 µM
  TGI: 12 µM
KM12 colon
  GI50: 2.31 µM
  TGI: 11.4 µM
NCI-H460 lung
  GI50: 1.21 µM
  TGI: 3.2 µM
NCI-H522 lung
  GI50: 0.665 µM
  TGI: 7.87 µM
SW-620 colon
  GI50: 1.27 µM
  TGI: 8.47 µM
T-47D breast
  GI50: 1.78 µM
  TGI: 13.6 µM
A549 NSCLC
  GI50: 1.34 µM
  TGI: 3.34 µM
MOLT-4 leukemia
  GI50: 2.2 µM
  TGI: 7.29 µM
HCC-2998 colon
  GI50: 1.31 µM
  TGI: 3.44 µM
SF-295 CNS
  GI50: 1.65 µM
  TGI: 5.55 µM
PC-3 prostate
  GI50: 1.58 µM
  TGI: 12.9 µM
SK-MEL-5 melanoma
  GI50: 1.5 µM
  TGI: 2.98 µM
SK-OV-3 ovarian
  GI50: 3.58 µM
  TGI: 16.2 µM
NCI-H23 lung
  GI50: 2.51 µM
  TGI: 11.5 µM
MDA-MB-231 breast
  GI50: 1.79 µM
  TGI: 9.32 µM
COLO 205 colon
  GI50: 5.93 µM
  TGI: 20.8 µM
SN12C renal
  GI50: 1.54 µM
  TGI: 5.96 µM
LOX IMVI melanoma
  GI50: 1.09 µM
  TGI: 2.28 µM
OVCAR-5 ovarian
  GI50: 2.96 µM
  TGI: 12.6 µM
RPMI-8226 leukemia
  GI50: 1.81 µM
  TGI: 4.85 µM
SF-539 CNS
  GI50: 1.49 µM
  TGI: 2.98 µM
HOP-62 NSCLC
  GI50: 2.53 µM
  TGI: 13 µM
U251 CNS
  GI50: 1.39 µM
  TGI: 3.89 µM
HT29 colon
  GI50: 3.02 µM
  TGI: 12.6 µM
MDA-MB-435
  GI50: 2.5 µM
  TGI: 11 µM
RXF 393 renal
  GI50: 2.38 µM
  TGI: 9.71 µM
SNB-19 CNS
  GI50: 3.42 µM
  TGI: 16.3 µM
HOP-92 NSCLC
  GI50: 0.452 µM
  TGI: 6.02 µM
A498 renal
  GI50: 11 µM
  TGI: 25.6 µM
786-0 renal
  GI50: 2.73 µM
  TGI: 10.5 µM
UACC-257 melanoma
  GI50: 3.97 µM
  TGI: 15.1 µM
NCI/ADR-RES ovarian
  GI50: 2.28 µM
  TGI: 12 µM
SK-MEL-28 melanoma
  GI50: 3.23 µM
  TGI: 11.9 µM
HCT-116 colon
  GI50: 1.27 µM
  TGI: 2.74 µM
SK-MEL-2 melanoma
  GI50: 3.88 µM
  TGI: 15.8 µM
CCRF-CEM leukemia
  GI50: 3.47 µM
  TGI: 13.5 µM
CAKI-1 renal
  GI50: 0.981 µM
  TGI: 6.65 µM
K-562 leukemia
  GI50: 1.44 µM
  TGI: 4.89 µM
M14 melanoma
  GI50: 1.32 µM
  TGI: 2.95 µM
UACC-62 melanoma
  GI50: 1.61 µM
  TGI: 5.2 µM
EKVX NSCLC
  GI50: 3.34 µM
  TGI: 15.5 µM
HS 578T breast
  GI50: 7.19 µM
  TGI: 32.5 µM
OVCAR-4 ovarian
  GI50: 2.82 µM
  TGI: 16.2 µM
IGROV1 ovarian
  GI50: 1.46 µM
  TGI: 13.3 µM
UO-31 renal
  GI50: 0.542 µM
  TGI: 7.76 µM
HCT-15 colon
  GI50: 1.31 µM
  TGI: 3.54 µM
MALME-3M melanoma
  GI50: 1.45 µM
  TGI: 3.28 µM
OVCAR-3 ovarian
  GI50: 2.24 µM
  TGI: 5.23 µM
MDA-MB-468 breast
  GI50: 1.17 µM
  TGI: 3.18 µM
NCI-H226 lung
  GI50: 1.58 µM
  TGI: 3.81 µM
BT-549 breast
  GI50: 2.94 µM
  TGI: 16.4 µM
HL-60(TB) leukemia
  GI50: 1.18 µM
  TGI: 2.95 µM
OVCAR-8 ovarian
  GI50: 1.43 µM
  TGI: 3.47 µM
TK-10 renal
  GI50: 6.87 µM
  TGI: 19 µM
SR leukemia
  GI50: 1.32 µM
  TGI: 5.33 µM
MCF7 breast
  GI50: 1.02 µM
  TGI: 2.95 µM
ACHN renal
  GI50: 1.38 µM
  TGI: 4.19 µM
SF-268 CNS
  GI50: 3.41 µM
  TGI: 16.2 µM

## O=C(Nc1ccc(I)cc1)Nc1nc2ccc([N+](=O)[O-])cc2s1
DU-145 prostate
  GI50: 3.99 µM
  TGI: 14 µM
KM12 colon
  GI50: 3.36 µM
  TGI: 11.6 µM
NCI-H460 lung
  GI50: 3.21 µM
  TGI: 10.4 µM
NCI-H522 lung
  GI50: 2.29 µM
  TGI: 6.75 µM
SW-620 colon
  GI50: 3.56 µM
  TGI: 13.1 µM
T-47D breast
  GI50: 2.8 µM
  TGI: 8.71 µM
A549 NSCLC
  GI50: 3.54 µM
  TGI: 13.5 µM
MOLT-4 leukemia
  GI50: 2.57 µM
  TGI: 7.12 µM
HCC-2998 colon
  GI50: 3.59 µM
  TGI: 12.3 µM
SF-295 CNS
  GI50: 2.93 µM
  TGI: 10.6 µM
PC-3 prostate
  GI50: 3.16 µM
  TGI: 11.4 µM
SK-MEL-5 melanoma
  GI50: 1.93 µM
  TGI: 3.9 µM
SK-OV-3 ovarian
  GI50: 2.93 µM
  TGI: 9.16 µM
NCI-H23 lung
  GI50: 2.23 µM
  TGI: 5.85 µM
COLO 205 colon
  GI50: 2.64 µM
  TGI: 6.52 µM
SN12C renal
  GI50: 2.86 µM
  TGI: 9.42 µM
LOX IMVI melanoma
  GI50: 3.49 µM
  TGI: 11.7 µM
OVCAR-5 ovarian
  GI50: 4.11 µM
  TGI: 15.9 µM
RPMI-8226 leukemia
  GI50: 2.07 µM
  TGI: 5.23 µM
SF-539 CNS
  GI50: 3.01 µM
  TGI: 9.39 µM
HOP-62 NSCLC
  GI50: 3.44 µM
  TGI: 12.5 µM
U251 CNS
  GI50: 3.23 µM
  TGI: 10.7 µM
HT29 colon
  GI50: 3.32 µM
  TGI: 13.4 µM
MDA-MB-435
  GI50: 3.47 µM
  TGI: 12.5 µM
RXF 393 renal
  GI50: 3.53 µM
  TGI: 12.9 µM
SNB-19 CNS
  GI50: 3.44 µM
  TGI: 12.9 µM
HOP-92 NSCLC
  GI50: 2.03 µM
  TGI: 6.28 µM
A498 renal
  GI50: 2.83 µM
  TGI: 9.14 µM
786-0 renal
  GI50: 3.5 µM
  TGI: 13.4 µM
UACC-257 melanoma
  GI50: 2.83 µM
  TGI: 8.24 µM
NCI/ADR-RES ovarian
  GI50: 2.92 µM
  TGI: 9.27 µM
SK-MEL-28 melanoma
  GI50: 3.19 µM
  TGI: 10.7 µM
HCT-116 colon
  GI50: 2.66 µM
  TGI: 11 µM
CCRF-CEM leukemia
  GI50: 3.4 µM
  TGI: 10.8 µM
CAKI-1 renal
  GI50: 3.32 µM
  TGI: 12.1 µM
K-562 leukemia
  GI50: 3.23 µM
  TGI: 10.9 µM
M14 melanoma
  GI50: 3.62 µM
  TGI: 13.2 µM
UACC-62 melanoma
  GI50: 2.99 µM
  TGI: 10.3 µM
EKVX NSCLC
  GI50: 3.08 µM
  TGI: 10.9 µM
HS 578T breast
  GI50: 3.01 µM
  TGI: 9.9 µM
OVCAR-4 ovarian
  GI50: 3.69 µM
  TGI: 14.5 µM
IGROV1 ovarian
  GI50: 3.67 µM
  TGI: 14 µM
HCT-15 colon
  GI50: 3.2 µM
  TGI: 11.2 µM
MALME-3M melanoma
  GI50: 2.41 µM
  TGI: 6.89 µM
OVCAR-3 ovarian
  GI50: 3.48 µM
  TGI: 12.6 µM
MDA-MB-468 breast
  GI50: 2.83 µM
  TGI: 7.4 µM
NCI-H226 lung
  GI50: 3.45 µM
  TGI: 13 µM
BT-549 breast
  GI50: 2.31 µM
  TGI: 7.29 µM
HL-60(TB) leukemia
  GI50: 2.41 µM
  TGI: 6.05 µM
OVCAR-8 ovarian
  GI50: 3.48 µM
  TGI: 11.8 µM
TK-10 renal
  GI50: 3.67 µM
  TGI: 11.7 µM
SR leukemia
  GI50: 2.24 µM
  TGI: 5.84 µM
MCF7 breast
  GI50: 2.59 µM
  TGI: 7.79 µM
ACHN renal
  GI50: 3.25 µM
  TGI: 10.4 µM
SF-268 CNS
  GI50: 3.63 µM
  TGI: 14.6 µM
